In US6881741B2 (ViroChem Pharma Inc., priority 2001, dated 2005) one finds IC50 data, which are given here for 38 molecules.

SMILES strings stand for the structures.

The first experiment deals with recombinant HCV NS5B (HCV RNA-dependent RNA polymerase) (Hepatitis C virus genotype 1b, UniProt P26663). Description: biochemical. The note with it: HCV polymerase activity, list of compounds of Example 27; read-out: IC50 (polymerase activity).
Sequence of recombinant HCV NS5B (HCV RNA-dependent RNA polymerase) (P26663 2420-3010 limits assumed): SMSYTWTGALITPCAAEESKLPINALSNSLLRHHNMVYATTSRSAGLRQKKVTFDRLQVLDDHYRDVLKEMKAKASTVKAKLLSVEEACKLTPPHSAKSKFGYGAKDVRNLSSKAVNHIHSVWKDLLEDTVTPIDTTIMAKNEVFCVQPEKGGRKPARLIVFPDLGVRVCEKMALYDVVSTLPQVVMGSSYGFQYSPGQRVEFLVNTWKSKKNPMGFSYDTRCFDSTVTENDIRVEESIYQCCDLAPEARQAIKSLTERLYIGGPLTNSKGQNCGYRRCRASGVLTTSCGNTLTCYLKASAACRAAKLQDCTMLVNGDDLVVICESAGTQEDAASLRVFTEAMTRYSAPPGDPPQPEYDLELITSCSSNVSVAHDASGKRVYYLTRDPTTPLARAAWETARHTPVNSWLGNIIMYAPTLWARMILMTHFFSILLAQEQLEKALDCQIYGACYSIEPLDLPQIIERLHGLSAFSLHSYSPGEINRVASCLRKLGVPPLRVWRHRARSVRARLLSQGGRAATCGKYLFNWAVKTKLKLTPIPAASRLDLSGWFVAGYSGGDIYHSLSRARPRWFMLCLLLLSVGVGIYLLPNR
With `CC(C)N(C(=O)c1ccc(Cl)cc1Cl)c1cc(-c2ccc3[nH]ccc3c2)sc1C(=O)O` [Compound 488, 3-[(2,4-DICHLORO-BENZOYL)- ISOPROPYL-AMINO]-5-(1H-INDOL-5-YL)- THIOPHENE-2-CARBOXYLIC ACID], the IC50 (in general, the concentration that gives 50% inhibition) was less than 5 µM.

With `CC(C)N(C(=O)c1ccc(Cl)cc1Cl)c1cc(-c2ccc(-c3nnn[nH]3)cc2)sc1C(=O)O` [Compound 430, 3-[(2,4-DICHLORO-BENZOYL)- ISOPROPYL-AMINO]-5-[4-(1#H!- TETRAZOL-5-YL)-PHENYL]-THIOPHENE- 2-CARBOXYLIC ACID], the IC50 is less than 5 µM.

On to `CC(=O)N1CCC(N(C(=O)c2ccc(Cl)cc2Cl)c2cc(-c3ccccc3)sc2C(=O)O)CC1` [Compound 429, 3-[(1-ACETYL-PIPERIDIN-4-YL)-(2,4- DICHLORO-BENZOYL)-AMINO]-5- PHENYL-THIOPHENE-2-CARBOXYLIC ACID], for which the IC50 is less than 5 µM.

For `O=C(O)c1sc(-c2ccccc2)cc1N(C(=O)c1ccc(Cl)cc1Cl)C1CCCC[C@@H]1O` (stereo in doubt) [Compound 538, 3-[(2,4-DICHLORO-BENZOYL)-(2- HYDROXY-CYCLOHEXYL)-AMINO]-5- PHENYL-THIOPHENE-2-CARBOXYLIC ACID], the IC50 is less than 5 µM.

As to `CN(C(=O)c1cc(-c2ccccc2)sc1C(=O)O)c1ccc(Cl)cc1Cl` [Compound 585, 3-[(2,4-DICHLORO-PHENYL)-METHYL- CARBAMOYL]-5-PHENYL-THIOPHENE-2- CARBOXYLIC ACID], the IC50 fell in the range of 5 to 20 µM.

On to `CC[NH+](CC)c1ncc(CN(C(=O)c2ccc(Cl)cc2Cl)c2cc(-c3ccccc3)sc2C(=O)O)s1` [Compound 558, (5-{[[2-CARBOXY-5-PHENYL-THIOPHEN-3- YL)-(2,4-DICHLORO-BENZOYL)-AMINO]- METHYL}-THIAZOL-2-YL)-DIETHYL- AMMONIUM; CHLORIDE], for which the IC50 is less than 5 µM.

As for `Cc1ccc(S(=O)(=O)Nc2cc(-c3ccccc3)sc2C(=O)NC2CCC2)cc1` [Compound 567, 5-PHENYL-3-(TOLUENE-4- SULFONYLAMINO)-THIOPHENE-2- CARBOXYLIC ACID CYCLOBUTYLAMIDE], the IC50 is 5 to 20 µM.

With `CC(=O)N(Cc1ccccc1C)c1cc(-c2ccccc2)sc1C(=O)O` [Compound 426, 3-[ACETYL-(2-METHYL-BENZYL)-AMINO]- 5-PHENYL-THIOPHENE-2-CARBOXYLIC ACID], the IC50 is more than 20 µM.

In the case of `CC(=O)N(Cc1ccc(Cl)cc1)c1cc(-c2ccccc2)sc1C(=O)O` [Compound 455, 3-[ACETYL-(4-CHLORO-BENZYL)-AMINO]- 5-PHENYL-THIOPHENE-2-CARBOXYLIC ACID], the IC50 was 5 to 20 µM.

Turning to `COc1cccc(CN(C(=O)CC(C)C)c2cc(-c3ccccc3)sc2C(=O)O)c1` [Compound 472, 3-[(3-METHOXY-BENZYL)-(3-METHYL- BUTYRYL)-AMINO]-5-PHENYL- THIOPHENE-2-CARBOXYLIC ACID], the IC50 was less than 5 µM.

As for `O=C(O)c1sc(-c2ccccc2)cc1N(Cc1ccccc1)C(=O)CC1CCCC1` [Compound 487, 3-[BENZYL-(2-CYCLOPENTYL-ACETYL)- AMINO]-5-PHENYL-THIOPHENE-2- CARBOXYLIC ACID], the IC50 is less than 5 µM.

Regarding `CCC1CCC(C(=O)N(c2cc(-c3ccccc3)sc2C(=O)O)C(C)C)CC1` (centres unmarked) [Compound 531, 3-[(4-ETHYL-CYCLOHEXANECARBONYL)- ISOPROPYL-AMINO]-5-PHENYL- THIOPHENE-2-CARBOXYLIC ACID], the IC50 was less than 5 µM.

With `CC1CCC(C(=O)N(c2cc(-c3ccccc3)sc2C(=O)O)C2CCCCC2)CC1` (centres unmarked) [Compound 579, 3-[CYCLOHEXYL-(4-METHYL- CYCLOHEXANECARBONYL)-AMINO]-5- PHENYL-THIOPHENE-2-CARBOXYLIC ACID], the IC50 is less than 5 µM.

For `CCCC(=O)N(Cc1ccc(C)cc1)c1cc(-c2ccccc2)sc1C(=O)O` [Compound 470, 3-[BUTYRYL-(4-METHYL-BENZYL)- AMINO]-5-PHENYL-THIOPHENE-2- CARBOXYLIC ACID], the IC50 lay in the range of 5 to 20 µM.

Staying with this experiment, now noted: IC50.
Consider `CC1CCC(C(=O)N(c2cc(-c3ccccc3)sc2C(=O)O)C(C)C)CC1` (centres unmarked) [Compound 316, 3-[ISOPROPYL-(4-METHYL- CYCLOHEXANECARBONYL)-AMINO]-5- PHENYL-THIOPHENE-2-CARBOXYLIC ACID], for which the IC50 was more than 20 µM.

The same experiment, now with this note: related polymerase activity (Example 27 list); read-out: IC50.
Regarding `CC(C)N(C(=O)c1ccc(Cl)cc1F)c1cc(-c2ccccc2)sc1C(=O)O` [Compound 307, 3-[(4-CHLORO-2-FLUORO-BENZOYL)- ISOPROPYL-AMINO]-5-PHENYL- THIOPHENE-2-CARBOXYLIC ACID], the IC50 is less than 5 µM.

Consider `O=C(O)c1sc(-c2ccccc2)cc1NS(=O)(=O)c1ccc(F)c(F)c1` [Compound 143, 3-(3,4-DIFLUORO-BENZENESULFONYLAMINO)-5-PHENYL-THIOPHENE-2-CARBOXYLIC ACID], for which the IC50 was less than 5 µM.

Regarding `O=C(O)c1sc(-c2ccccc2)cc1NS(=O)(=O)c1cccc(F)c1` [Compound 49, 3-(3-FLUORO-BENZENESULFONYLAMINO)-5-PHENYL-THIOPHENE-2-CARBOXYLIC ACID], the IC50 is less than 5 µM.

Consider `Cc1cc(C)c(S(=O)(=O)Nc2cc(-c3ccccc3)sc2C(=O)O)c(C)c1` [Compound 298, 5-PHENYL-3-(2,4,6-TRIMETHYL- BENZENESULFONYLAMINO)- THIOPHENE-2-CARBOXYLIC ACID], for which the IC50 was less than 5 µM.

Turning to `Cc1ccc(C(=O)N(c2cc(-c3ccccc3)sc2C(=O)O)C2CCN(C(=O)OC(C)(C)C)CC2)cc1` [Compound 364, 4-[(2-CARBOXY-5-PHENYL-THIOPHEN-3- YL)-(4-METHYL-BENZOYL)-AMINO]- PIPERIDINE-1-CARBOXYLIC ACID #TERT!-BUTYL ESTER], the IC50 was less than 5 µM.

Regarding `Cc1ccc(S(=O)(=O)Nc2cc(-c3ccc(C(N)=O)cc3)sc2C(=O)O)cc1` [Compound 259, 5-(4-CARBAMOYL-PHENYL)-3-(TOLUENE-4-SULFONYLAMINO)-THIOPHENE-2-CARBOXYLIC ACID], the IC50 was less than 5 µM.

As to `Cc1cccc(S(=O)(=O)Nc2cc(-c3ccccc3)sc2C(=O)O)c1` [Compound 16, 5-PHENYL-3-(TOLUENE-3-SULFONYLAMINO)-THIOPHENE-2-CARBOXYLIC ACID], the IC50 lay in the range of 5 to 20 µM.

Consider `Cc1ccc(C(=O)N(C)c2cc(-c3ccc(O)cc3)sc2C(=O)O)cc1` [Compound 215, 5-(4-HYDROXY-PHENYL)-3-[METHYL-(4-METHYL-BENZOYL)-AMINO]-THIOPHENE-2-CARBOXYLIC ACID], for which the IC50 is less than 5 µM.

As for `O=C(O)c1sc(-c2ccc(F)cc2)cc1NS(=O)(=O)c1ccc(F)cc1F` [Compound 110, 3-(2,4-DIFLUORO-BENZENESULFONYLAMINO)-5-(4-FLUORO-PHENYL)-THIOPHENE-2-CARBOXYLIC ACID], the IC50 is less than 5 µM.

As for `CN(C(=O)c1ccc(Cl)nc1Cl)c1cc(-c2ccccc2)sc1C(=O)O` [Compound 245, 3-[(2,6-DICHLORO-PYRIDINE-3-CARBONYL)-METHYL-AMINO]-5-PHENYL-THIOPHENE-2-CARBOXYLIC ACID], the IC50 is 5 to 20 µM.

For `CCN(C(=O)C1CCCC1)c1cc(-c2ccccc2)sc1C(=O)O` [Compound 391, 3-(CYCLOPENTANECARBONYL-ETHYL- AMINO)-5-PHENYL-THIOPHENE-2- CARBOXYLIC ACID], the IC50 lay in the range of 5 to 20 µM.

In the case of `Cc1ccccc1S(=O)(=O)Nc1cc(-c2ccc(Cl)cc2Cl)sc1C(=O)O` [Compound 58, 5-(2,4-DICHLORO-PHENYL)-3-(TOLUENE-2-SULFONYLAMINO)-THIOPHENE-2-CARBOXYLIC ACID], the IC50 lay within 5 to 20 µM.

Take `CC(=O)Nc1cccc(-c2cc(NS(=O)(=O)c3ccccc3C)c(C(=O)O)s2)c1` [Compound 90, 5-(3-ACETYLAMINO-PHENYL)-3-(TOLUENE-2-SULFONYLAMINO)-THIOPHENE-2-CARBOXYLIC ACID]: the IC50 lay within 5 to 20 µM.

Consider `COc1ccc(-c2cc(NS(=O)(=O)c3ccccc3C)c(C(=O)O)s2)cc1` [Compound 122, 5-(4-METHOXY-PHENYL)-3-(TOLUENE-2-SULFONYLAMINO)-THIOPHENE-2-CARBOXYLIC ACID], for which the IC50 is less than 5 µM.

On to `Cc1nn(C)c(Cl)c1S(=O)(=O)Nc1cc(-c2ccccc2)sc1C(=O)O` [Compound 41, 3-(5-CHLORO-1,3-DIMETHYL-1H-PYRAZOLE-4-SULFONYLAMINO)-5-PHENYL-THIOPHENE-2-CARBOXYLIC ACID], for which the IC50 lay within 5 to 20 µM.

As to `Cc1ccc(S(=O)(=O)Nc2cc(-c3ccc(C(=O)O)cc3)sc2C(=O)O)c(C)c1` [Compound 332, 5-(4-CARBOXY-PHENYL)-3-(2,4-DIMETHYL- BENZENESULFONYLAMINO)- THIOPHENE-2- CARBOXYLIC ACID], the IC50 was less than 5 µM.

Turning to `CN(C(=O)CCC1CCCC1)c1cc(-c2ccccc2)sc1C(=O)O` [Compound 384, 3-[(3-CYCLOPENTYL-PROPIONYL)- METHYL-AMINO]-5-PHENYL-THIOPHENE- 2-CARBOXYLIC ACID], the IC50 was less than 5 µM.

With `O=C(O)c1sc(-c2ccccc2)cc1NS(=O)(=O)c1ccccc1F` [Compound 30, 3-(2-FLUORO-BENZENESULFONYLAMINO)-5-PHENYL-THIOPHENE-2-CARBOXYLIC ACID], the IC50 lay in the range of 5 to 20 µM.

On to `O=C(O)c1sc(-c2ccc(Cl)cc2)cc1NS(=O)(=O)c1ccccn1` [Compound 116, 5-(4-CHLORO-PHENYL)-3-(PYRIDINE-2-SULFONYLAMINO)-THIOPHENE-2-CARBOXYLIC ACID], for which the IC50 was in the range of 5 to 20 µM.

With `Cc1ccccc1S(=O)(=O)Nc1cc(-c2cccc(F)c2)sc1C(=O)O` [Compound 67, 5-(3-FLUORO-PHENYL)-3-(TOLUENE-2-SULFONYLAMINO)-THIOPHENE-2-CARBOXYLIC ACID], the IC50 was less than 5 µM.

Consider `CN(C(=O)Cc1ccc(F)cc1)c1cc(-c2ccccc2)sc1C(=O)O` [Compound 173, 3-{[2-(4-FLUORO-PHENYL)-ACETYL]-METHYL-AMINO}-5-PHENYL-THIOPHENE-2-CARBOXYLIC ACID], for which the IC50 is less than 5 µM.

As to `Cc1ccccc1S(=O)(=O)Nc1cc(-c2ccccc2C(=O)O)sc1C(=O)O` [Compound 115, 5-(2-CARBOXY-PHENYL)-3-(TOLUENE-2-SULFONYLAMINO)-THIOPHENE-2-CARBOXYLIC ACID], the IC50 is 5 to 20 µM.

In the case of `Cc1ccc(C(=O)N(Cc2ccccc2C)c2cc(-c3ccccc3)sc2C(=O)O)cc1` [Compound 343, 3-[(4-METHYL-BENZOYL)-(2-METHYL- BENZYL)-AMINO]-5-PHENYL-THIOPHENE- 2-CARBOXYLIC ACID], the IC50 was less than 5 µM.
